Measured values published in US9624286B2, “Composition comprising peptide derived from adiponectin” (KNU-INDUSTRY COOPERATION FOUNDATION, priority 2013, dated 2017).

Legend:
[1] = tested on: NIH3T3 cells; experiment: Tests for facilitating the proliferation of mouse fibroblast cell line NIH3T3 (CCK-8); type: cell-based; settings: peptide 10 μM; 24, 48 and 72 hours; CCK-8 absorbance at 475 nm; FIG. 1
Experimental: The NIH3T3 cells (mouse fibroblast cell line, ATCC CRL-1658, USA), along with 100 μl of Dulbecco's Modified Eagle medium (DMEM), were added to each well of the 96-well microplate in the concentration of 5×10^3 cells per well, and then cultured in a 5% CO2 incubator at 37° C. for 24 hours. The peptide solutions (100 μl) having the respective peptide of SEQ ID NOs: 1, 2, 3 and 5 in the concentration of 10 μM were added to each well. While incubating the cells for 24, 48, and 72 hours therefrom, 10 μl of CCK-8 (Dojindo Laboratories, Japan) was added to each well and then the respective absorbance at 475 nm was measured with Spectramax plus 190 plate reader (Molecular Devices, USA).

[2] = tested on: procollagen type-1; experiment: Activation of the procollagen type-1 expression in fibroblasts (Western blotting); type: cell-based, mouse; settings: NIH3T3 cells, peptide 0.1, 1 and 10 μM, 48 hours, concentration-dependent, FIG. 2
Experimental: Since facilitation of the collagen fiber synthesis is one of the principal means for inhibiting skin aging, we evaluate whether the collagen synthesis in fibroblasts is facilitated by the treatment of the peptides of the present invention, using the NIH3T3 cells (mouse fibroblast cell line, ATCC CRL-1658, USA). The fibroblasts were treated with the peptides of SEQ ID NOs: 1, 2, 3 and 5, in the concentrations of 0.1, 1 and 10 μM, respectively. After 48 hours, the cell extracts were subject to the Western blotting assay so as to measure the expressions of procollagen type-1. […] Therefore, it can be seen that the peptides of the present invention can inhibit skin aging derived from loss of collagen, especially skin wrinkle.

[3] = tested on: profilaggrin; experiment: Control of the profilaggrin expression in human keratinocyte cell line HaCaT (Western blotting); type: cell-based; settings: HaCaT cells, peptide 0.1, 1.0 and 10 μM, 48 hours, concentration-dependent, FIG. 3
Experimental: Since profilaggrin is one of the principal elements for constituting skin barrier, we evaluate whether the profilaggrin synthesis in keratinocytes is facilitated by the treatment of the peptides of the present invention, using the HaCaT cells (human keratinocyte cell line, DKFZ, Heidelberg, Germany). The HaCaT cells were treated with the peptides of SEQ ID NOs: 3 and 5, in the concentrations of 0.1, 1.0 and 10 μM. After 48 hours, the cell extracts were subject to the Western blotting assay so as to measure the expressions of profilaggrin. […] Therefore, it can be seen that the peptides of the present invention have a skin-moisturizing activity through facilitating the profilaggrin expression.

Substance | proliferations of NIH3T3 cells [1] | expressions of procollagen type-1 [2] | expressions of profilaggrin [3]
His-Ile-Thr (HIT; Peptide fragment) [SEQ ID NO: 2, adiponectin-derived peptide fragment] | significantly increased | increased | 
Leu-Phe-Thr-Tyr-Asp (LFTYD; Peptide fragment) [SEQ ID NO: 3, adiponectin-derived peptide fragment] | significantly increased | increased | increased
Phe-Thr-Tyr (FTY; Peptide fragment) [SEQ ID NO: 5, adiponectin-derived peptide fragment] | significantly increased | increased | increased
Tyr-His-Ile-Thr (YHIT; Peptide fragment) [SEQ ID NO: 1, adiponectin-derived peptide fragment] | significantly increased | increased | 
